Source: patent US6303619A, “Meta-substituted acidic 8-phenylxanthine antagonists of A3 human adenosine receptors” (priority 1998, dated 2001)
“Also recorded” adds a separate entry of the source.

Assays:
[1] = molecular target: T1, human A3 adenosine receptor (Homo sapiens, UniProt P0DMS8); test: inhibition of forskolin-stimulated cAMP accumulation in stably transfected CHO cells expressing the human A3 receptor; type: cell-based; conditions: stably transfected CHO cells, human A3
T1 construct: clone HS-21a contained the complete open reading frame corresponding to the human homolog of the rat A3 adenosine receptor; expressed in transfected cells; host or cells: CHO cells stably transfected with HS-21a cDNA
T1 sequence (P0DMS8 1-318): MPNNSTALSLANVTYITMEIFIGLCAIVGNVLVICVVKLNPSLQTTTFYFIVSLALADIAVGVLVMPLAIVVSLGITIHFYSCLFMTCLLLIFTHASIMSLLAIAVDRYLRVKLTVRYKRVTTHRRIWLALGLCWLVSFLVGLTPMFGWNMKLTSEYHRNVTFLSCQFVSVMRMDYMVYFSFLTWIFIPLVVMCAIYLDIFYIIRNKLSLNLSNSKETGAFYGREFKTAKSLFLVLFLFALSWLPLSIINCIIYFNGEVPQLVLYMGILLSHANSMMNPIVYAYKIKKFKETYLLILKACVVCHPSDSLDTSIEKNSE
Method: The human A3 adenosine receptor from a striatal cDNA library can be cloned using a probe derived from the homologous rat sequence.
cAMP Accumulation in Stable CHO Cell Lines
The changes in cAMP accumulation can alternatively be measured in stably transfected CHO cells expressing the human adenosine receptor subtypes. CHO cells are washed twice in phosphate buffered saline (PBS) and detached in 0.2% EDTA in PBS. The cells are pelleted at 800 rpm for 10 min and resuspended in KRH buffer (140 mM NaCl/5 mM KCl/2 mM CaCl2 /1.2 mM MgSO4 /1.2 mM KH2 PO4 /6 mM glucose/25 mM Hepes buffer, pH 7.4). The cells are washed once in KRH buffer and resuspended at 10^7 cells/mL. The cell suspension (100 μl) is mixed with 100 μl of KRH buffer containing 200 uM Ro 20-1724 and incubated at 37° C. for 10 minutes. Adenosine (10 uM) was added in 200 μl KRH buffer containing 200 uM Ro 20-1724 and incubated at 37° C. for 20 minutes. After the incubation, 400 μl of 0.5 mM NaOAc (pH 6.2) was added and the sample was boiled for 20 minutes. The supernatant was recovered by centrifugation for 15 minutes and stored at -70° C. cAMP levels were determined by radiommunoassay (RIANEN kit, DuPont/NEN) using the to acetylation protocol. The effect of antagonists on cAMP accumulation are measured by preincubation for 20 minutes before adding adenosine.

[2] = test system: sheep A3 adenosine receptor; conditions: cited from earlier work
[3] = molecular target: T1, human A3 adenosine receptor; test: 125I-ABA binding to membranes of stably transfected CHO cells expressing the human A3 adenosine receptor (HS-21a); conditions: for potency order of agonists / potency order of antagonists: order in words/symbols
Method: Membranes were prepared from transiently transfected COS7 cells […] after transfection or from G418-selected stably transfected CHO or HEK 293 cells. Cells were harvested in 1 mM EDTA in phosphate buffered saline and centrifuged at 2000×g for 10 minutes. The cell pellet was washed once with phosphate buffered saline. The cell pellet was resuspended in 2 mL of 5 mM Tris, pH 7.6/5mM MgCl2. Membranes were prepared from the cells by freeze-thaw lysis in which the suspension was frozen in a dry ice/ethanol bath and thawed at 25° C. twice. The suspension was homogenized after adding an additional 2 mL of 5 mM Tris, pH 7.6/5 mM MgCl2, in a glass dounce homogenizer with 20 strokes. The membranes were pelleted at 40,000×g at 4° C. for 20 minutes. The membrane pellet was resuspended at a protein concentration of 1-2 mg/mL in binding assay buffer, 50 mM Tris, pH 7.6/10 mM MgCl2. Protein concentration was determined by the method of Bradford ((1976) Anal. Biochem. 72: 248-250). […] Saturation binding of [^125 I]-N^6 -aminiobenizyladenosine (125I-ABA) or [^125 I]-N^6 -2-(4-amino-3-iodophenyl)ethyladenosine (APNEA) was performed on membranes prepared from pSVLA3 transfected COS7 cells. Membranes (100 μg) were incubated in the presence of 0.2 U/mL adenosine deaminase with increasing concentrations of ^125 I-ABA in the range of 0.1-30 nM for 120 minutes at 25° C. in a total volume of 500 μl. The binding assay was terminated by rapid filtration and three washes with ice-cold 50 mM Tris, pH 7.6/10 mM MgCl2 on a Skatron cell harvester equipped with a receptor binding flitermat (SKATRON INSTRUMENTS, INC). Non-specific binding was determined on non-transfected cells. Bound radioactivity was measured by scintillation counting in Ready Safe Scintillation Cocktail (BECKMAN).
The 1.7 kb HS-21a cDNA (A3) was subcloned as a SalI-BamHl fragment into the expression vector pCMV5 (Mumby, S. M., Heukeroth, R. O., Gordon, J. I. and Gilman, A. G. (1990) Proc. Natl. Acad. Sci. USA 87, 728-732.) creating the vector pCMV5-A3. CHO or HEK 293 cells stably expressing the human HS-21 a cDNA were prepared by co-transfection of 15 μg pCMV5-A3 and 1 μg pWLneo (Stratagene) using the calcium phosphate method. Stable cell lines were also generated using EBV based mammalian expression vectors, pREP (INVITROGEN). Neomycin resistant colonies were selected in 1 mg/mL G418 (GIBCO). Stable colonies were screened for expression of HS-21a by ^125 I-ABA binding.
Membranes were prepared from stable CHO cell lines in 10 mM Hepes, pH 7.4 containing 0.1 mM benzamidine and 0.1 mM PMSF as described (Mahan, L. C. et al., (1991) Mol. Pharinacol. 40, 1-7). Pellets were resuspended in 5 mM Hepes, pH 7.4/5 mM MgCl2 /0.1 mM benzarnidine/0.1 mM PMSF at a protein concentration of 1-2 mg/mL and were incubated with adenosine deaminase (Boehringer Mannheim), 2 U/mL at 37° C. for 20 minutes. Saturation binding of ^125 I-ABA was carried out on 50 μg of membranes for 120 minutes at 25° C. in a total volume of 100 μl. The assay was terminated by rapid filtration and three washes with ice-cold binding buffer on a Skatron harvester equipped with a receptor binding filtermat (Skatron Instruments, Inc.). The specific activity of ^125 I-ABA, initially 2,200 Ci/mmol, was reduced to 100 Ci/mmol with nonradioactive I-ABA for saturation analysis. Nonspecific binding was measured in the presence of 1 uM I-ABA. The KD and Bmax values were calculated by the EBDA program (McPherson, G. A. (1983) Computer Programs for Biomedicine 17, 107-114). Competition binding of agonists and antagonists was determined with ^125 I-ABA (0.17-2.0 nM, 2000 Ci/mmol). […] Binding data were analyzed and competition curves were constructed by use of the nonlinear regression curve fitting program Graph PAD InPlot, Version 3.0 (Graph Pad Software, San Diego).

[4] = test system: rat A3 adenosine receptor; conditions: cited from earlier work
[5] = test system: rat A3 adenosine receptor; conditions: cited from earlier work; remark: listed apart in the source
[6] = test system: myocardial ischemic injury; conditions: inhibitor of mast cell degranulation; cited from earlier work
A3 adenosine receptor = conditions: animal model; Jin et al. 1997; cited from earlier work
asthmatics = conditions: cited from earlier work
A1 adenosine receptor = conditions: cited from earlier work
[7] = test system: sheep A3 adenosine receptor; conditions: cited from earlier work; remark: listed apart in the source
A2B adenosine receptor = conditions: cited from earlier work
A2A adenosine receptor = conditions: cited from earlier work
[8] = molecular target: T1, human A3 adenosine receptor; conditions: cited from earlier work
[9] = test system: receptor exhibiting an agonist pharmacological profile thought to be characteristic of the rat A3 subtype; conditions: angiotensin II-supported pithed rat; cited from earlier work

SMILES: OC[C@H]1O[C@@H](n2cnc3c(NC4CCCC4)ncnc32)[C@H](O)[C@@H]1O [CPA, N^6 -cyclopentyladenosine]
- inhibition of forskolin-stimulated cAMP accumulation [1]: 30-40%
- agonist affinity order [2]: I-ABA>APNEA>NECA≥R-PIA>>CPA
- Ki ([3]; competition with 125I-ABA (FIG. 3a), read-out: Ki, agonists): 89 nM
- potency order of agonists ([3]; human A3): N-ethylcarboxamidoadenosine (NECA)≥R-phenylisopropyladenosine(R-PIA)>N^6 -cyclopentyladenosine (CPA)>S-p-benylisopropyladenosine (S-PIA); also recorded: NECA>R-PIA>CPA>S-PLA

SMILES: CCCn1c(=O)c2[nH]c(-c3ccc(OCC(=O)NCCN)cc3)nc2n(CCC)c1=O [XAC]
- binding to rat A3 receptor [4]: not to bind

SMILES: CCCn1c(=O)c2[nH]c(C3CCCC3)nc2n(CCC)c1=O [DPCPX, 1,3-dipropyl-8-cyclopentylxanthine]
- binding to rat A3 receptor [4]: not to bind
- potency order of antagonists ([3]; human A3): I-ABOPX>1,3-dipropyl-8-(4-acrylate) phenylxanthine (BW-A1433)≥xanthine amino cogener (XAC)>>1,3-dipropyl-8-cyclopentylxanthine (DPCPX)

SMILES: CCNC(=O)[C@H]1O[C@@H](n2cnc3c(N)nc(NCCc4ccc(CCC(=O)O)cc4)nc32)[C@H](O)[C@@H]1O [CGS21680]
- potency order for inhibition of cyclic AMP accumulation [5]: NECA=R-PIA>CGS21680

SMILES: Nc1ccc(CCNc2ncnc3c2ncn3[C@@H]2O[C@H](CO)[C@@H](O)[C@H]2O)cc1I [APNEA, N^6-2-(4-amino-3-iodophenyl)ethyladenosine]
- agonist affinity order [2]: I-ABA>APNEA>NECA≥R-PIA>>CPA

SMILES: N#Cc1cc(NC(=O)C(=O)O)c(Cl)c(NC(=O)C(=O)O)c1 [lodoxamide]
- reduction of myocardial ischemic injury [6]: reduces myocardial ischemic injury

SMILES: CCCn1c(=O)c2[nH]c(-c3ccc(C=CC(=O)O)cc3)nc2n(CCC)c1=O [BW-A1433, 1,3-dipropyl-8-(4-acrylate) phenylxanthine]
- potency order of antagonists ([3]; human A3): I-ABOPX>1,3-dipropyl-8-(4-acrylate) phenylxanthine (BW-A1433)≥xanthine amino cogener (XAC)>>1,3-dipropyl-8-cyclopentylxanthine (DPCPX)

SMILES: OC[C@H]1O[C@@H](n2cnc3c(O)ncnc32)[C@H](O)[C@@H]1O [inosine]
- induction of mast cell degranulation (A3 adenosine receptor): induce mast cell degranulation

SMILES: CCCn1c(=O)c2[nH]c(-c3ccc(OCC(=O)O)cc3)nc2n(Cc2ccc(N)c(I)c2)c1=O [I-ABOPX]
- A3 antagonist affinity in words ([3]; human A3): highest affinity para-substituted antagonist yet reported for A3 adenosine receptors
- potency order of antagonists ([3]; human A3): I-ABOPX>1,3-dipropyl-8-(4-acrylate) phenylxanthine (BW-A1433)≥xanthine amino cogener (XAC)>>1,3-dipropyl-8-cyclopentylxanthine (DPCPX)

SMILES: Cn1c(=O)c2[nH]cnc2n(C)c1=O [theophylline]
- antagonism of adenosine-induced bronchoconstriction (asthmatics): antagonized

SMILES: Cn1c(=O)c2[nH]c(-c3ccc(S(=O)(=O)O)cc3)nc2n(C)c1=O [8-(para-sulfophenyl)theophylline]
- action on A1 subtype (A1 adenosine receptor): broad action
- blockade of sheep A3 receptor [7]: blocks
- action on A2B subtype (A2B adenosine receptor): broad action
- action on A2A subtype (A2A adenosine receptor): broad action
- blockade of human A3 receptor [8]: blocks
- sensitivity of hypotension to blockade [9]: insensitive to blockade

SMILES: Nc1ccc(CCNc2ncnc3c2ncn3[C@@H]2O[C@H](CO)[C@@H](O)[C@H]2O)cc1[125I] [^125 I-APNEA, N^6-2-(4-amino-3^125 iodophenyl)ethyladenosine]
- binding to rat A3 receptor [4]: bind
- non-specific binding to CHO cell membranes ([3]; 125I-APNEA, preliminary experiments): high non-specific

SMILES: C[C@H](Cc1ccccc1)Nc1ncnc2c1ncn2[C@@H]1O[C@H](CO)[C@@H](O)[C@H]1O [R-PIA]
- potency order for inhibition of cyclic AMP accumulation [5]: NECA=R-PIA>CGS21680
- inhibition of forskolin-stimulated cAMP accumulation [1]: 30-40%
- agonist affinity order [2]: I-ABA>APNEA>NECA≥R-PIA>>CPA
- potency order of agonists ([3]; human A3): N-ethylcarboxamidoadenosine (NECA)≥R-phenylisopropyladenosine(R-PIA)>N^6 -cyclopentyladenosine (CPA)>S-p-benylisopropyladenosine (S-PIA); also recorded: NECA>R-PIA>CPA>S-PLA

SMILES: CCNC(=O)[C@H]1O[C@@H](n2cnc3c(N)ncnc32)[C@H](O)[C@@H]1O [NECA, N-ethylcarboxamidoadenosine]
- potency order for inhibition of cyclic AMP accumulation [5]: NECA=R-PIA>CGS21680
- inhibition of forskolin-stimulated cAMP accumulation [1]: 30-40%
- agonist affinity order [2]: I-ABA>APNEA>NECA≥R-PIA>>CPA
- prevention of specific binding of 125I-ABA ([3]; 400 uM NECA): prevented
- potency order of agonists ([3]; human A3): N-ethylcarboxamidoadenosine (NECA)≥R-phenylisopropyladenosine(R-PIA)>N^6 -cyclopentyladenosine (CPA)>S-p-benylisopropyladenosine (S-PIA); also recorded: NECA>R-PIA>CPA>S-PLA

SMILES: C[C@@H](Cc1ccccc1)Nc1ncnc2c1ncn2[C@@H]1O[C@H](CO)[C@@H](O)[C@H]1O [S-PIA, (R,S)-N^6-phenyl-2-propyladenosine]
- inhibition of forskolin-stimulated cAMP accumulation [1]: 30-40%
- potency order of agonists ([3]; human A3): N-ethylcarboxamidoadenosine (NECA)≥R-phenylisopropyladenosine(R-PIA)>N^6 -cyclopentyladenosine (CPA)>S-p-benylisopropyladenosine (S-PIA); also recorded: NECA>R-PIA>CPA>S-PLA
